What all share (type): cell-based, human
Assay [1] deals with MMP-2. Briefly: MMP activity of skin explants stimulated with hyaluronane (gelatin zymography), MMP-2. To be noted: skin explants stimulated with 1 mg/ml of hyaluronane, 10 μg/ml. The protocol:
(§1) Skin explants from a skin of the belly of a person were cultivated in a DMEM medium without phenol red (GIBCO) under stirring at 37° C. for 48 hours with different treatments. The samples were treated with a concentration of 10 μg/ml.
(§2) Gelatin, substrate of the MMP-s, was co-polymerized at final 1 mg/ml with a gel of polyacrylamide at 10%. The extracellular media from the cultures of skin explant were deposited on the top of the gel, the electrophoresis was carried out at 150 volts. The gels were then incubated in MMP buffer for 24 hours under stirring at 37° C. The gels were then colored with Coomassie blue, then uncolored with distilled water. The lise ranges corresponding to an MMP activity, appeared as white, while the background of the gel was blue. In function of the distance of migration of proteins, one could determine the molecular weights of the enzymes having digested the gelatin. The MMP activity was quantified by morphometric analysis with the aid of a Visiolab computer. […]
(§3) The protocol of the studies was the same as that used for the study of the MMP activity of the non-stimulated skin explants, but with hyaluronane with a concentration of […] and the samples of oligosaccharides with a concentration of 10 μg/ml, added in the culture medium.

Assay [2] deals with MMP-2. Briefly: MMP activity of skin fibroblasts stimulated with 1 mg/ml hyaluronane (zymography), expression of MMP-2. The note with it: 1 mg/ml of hyaluronane, 10 μg/ml, 24 hours (section b.2 fibroblasts; title says skin explants not stimulated). The text has this:
(§4) Skin fibroblast from a skin of the belly of a person were cultivated until the 7th cellular passage in a DMEM Glutamax (GIBCO) medium containing 1% of antibiotics and of fungicide and 10% of fetal calf serum and were used for the experiment. The fibroblasts were inseminated on 6-well plates at a density of 5.10^4 cells per well. When at the confluence, the culture medium was replaced by a DMEM medium, without phenol red containing 0.1% of BSA and containing the different substances to be treated at a concentration of 10 μg/ml. After 24 hours of culture at 37° C. (5% (v/v) CO2, 95% (v/v) air) the samples were recovered.
(§5) As in the case of the cultures of skin explants, the culture media of the fibroblasts were studied with zymography.
a.2.2) MMP Activity of the Fibroblasts of Skin Stimulated with 1 mg/ml of Hyaluronane
The protocol of the studies is the same as that used for the study of the MMP activity of the non-stimulated fibroblasts of skin, but with hyaluronane with a concentration of 1 mg/ml and the samples of oligosaccharides with a concentration of 10 μg/ml, added in the culture medium.
(§6) When the fibroblasts are cultivated in monolayer, only the widely secreted MMP-2 is visible with a very low quantity of MMP-9, however, present.

In assay [3] the test system is MMP-9. Briefly: MMP activity of non-stimulated skin explants (gelatin zymography), MMP-9. To be noted: 10 μg/ml, 48 hours. The procedure:
as §1
(§7) Extracellular medium-1 ml of medium
(§8) Intracellular medium-explant ground with ultraturax in 1 ml of MMP buffer
(§9) 0.1 M Tris-HCl, pH 7.5, 0.1 M NaCl, 10 mM CaCl2, 1 mM zinc acetate
(§10) Gelatin, substrate of the MMP-s, was co-polymerized at final 1 mg/ml with a gel of polyacrylamide at 10%. The extracellular media from the cultures of skin explant were deposited on the top of the gel, the electrophoresis was carried out at 150 volts. The gels were then incubated in MMP buffer for 24 hours under stirring at 37° C. The gels were then colored with Coomassie blue, then uncolored with distilled water. The lise ranges corresponding to an MMP activity, appeared as white, while the background of the gel was blue. In function of the distance of migration of proteins, one could determine the molecular weights of the enzymes having digested the gelatin. The MMP activity was quantified by morphometric analysis with the aid of a Visiolab computer.

Assay [4] relates to MMP-2. Briefly: MMP activity of non-stimulated skin fibroblasts in monolayer (zymography), expression of MMP-2. The note with it: 10 μg/ml, 24 hours (section b.2 fibroblasts; title says skin explants).
Description: as §4
Extracellular medium−1 ml of medium+2 rinsings with 0.25 ml of PBS
Intracellular medium−cellular carpet sonicated with 1 ml of MMP buffer
MMP Buffer composition 0.1 M Tris-HCl, pH 7.5, 0.1 M NaCl, 10 mM CaCl2, 1 mM zinc acetate
as §5, §6

Assay [5] relates to MMP-2. Put plainly: MMP activity of non-stimulated skin explants (gelatin zymography), MMP-2. To be noted: 10 μg/ml, 48 hours. The procedure:
as §1, §7, §8, §9, §10

Assay [6] has as its system MMP-9. Briefly: MMP activity of skin explants stimulated with hyaluronane (gelatin zymography), MMP-9. To be noted: skin explants stimulated with 1 mg/ml of hyaluronane, 10 μg/ml. The protocol: as §1, §2, §3

Data on 1 compound can be found in patent US20040097464A1, “Mixture of non-sulfated fucose-based oligosaccharides, a cosmetic or pharmaceutical composition comprising said mixture and its use in cosmetics or pharmacy” (priority 2000, published 2004).

As for `C[C@H](O)[C@@H](O)[C@@H](O)[C@H](O)C=O` [Fucose, fucose], the “Active/Inactive MMP-2 (active form/inactive form relationship of the enzyme)” value in assay [1] came out at 1.65; in assay [5], 0.80. Besides, the “% effectiveness: reduction of active/inactive relationship of MMP-2” value in assay [1] (vs control) is “Ns”. Besides, in assay [2], the “% effectiveness: reduction of the expression of MMP-2 with respect to the control” value was 11%. Moreover, the “Active/Inactive MMP-9 (active form/inactive form relationship of the enzyme)” value in assay [3] is 2.38; in assay [6] it was 3.54. The “% effectiveness: reduction of active/inactive relationship of MMP-9” value in assay [3] (vs control) came out at 57%; in assay [6] (vs control) it was 50%. In addition, the “% of effectiveness: reduction of the expression of MMP-2” value in assay [4] was determined as 6%. For the same compound, the “% of effectiveness: reduction of active/inactive relationship of MMP-2” value in assay [5] (vs control) was determined as 6%.
